According to US5684162A, “Leukotriene B4 antagonists” (G.D. Searle & Co., priority 1996, dated 1997):

Columns and labels:
[1] = test system: Human neutrophils; assay: Modified Boyden Chamber Chemotaxis (LTB4-induced, human neutrophils); format: cell-based; conditions: Neutrophil; 3×10^-8 M LTB4, human neutrophils, 40-90 minute incubation at 37° C., pH 7.3
Protocol: Modified Boyden Chamber Chemotaxis
Human neutrophils were isolated from citrated peripheral blood using standard techniques of dextran sedimentation, followed by centrifugation on Histopaque® sterile solution (Sigma) or Ficoll-paque® (Pharmacia) and hypotonic lysis of erythrocytes. A final cell suspension of 3.4×10^6 neutrophils/ml of HEPES-buffered Hanks' balanced salt solution (HBSS, pH 7.3) was added to the upper well (0.8 ml) of a modified Boyden chamber (blind well). The lower well (0.2 ml), separated by a polycarbonate membrane (Nucleopore Corp.), contained HBSS or 3×10^-8 M LTB4 in the presence or absence of test compound. Following a 40-90 minute incubation at 37° C. in 5% CO2 -95% air, cells from the lower well were lysed and nuclei counted in a Model S-Plus-IV Coulter Counter. The number of neutrophils migrating into the lower chamber in the absence of chemoattractant was subtracted from the number of cells migrating in the presence of a chemoattractant. Inhibition of chemotaxis by test compounds was expressed as percent inhibition relative to uninhibited control.

[2] = target: T1, LTB4 Receptor (Homo sapiens, UniProt Q15722); assay: LTB4 Receptor Binding Assay ([3H]LTB4, human neutrophils); conditions: 0.6×10^-9 M (3H) LTB4, human neutrophils, 0° C., 45 minutes, pH 7.4
T1 construct: Neutrophils were purified from venous blood of normal human donors; endogenous in cells; host or cells: human peripheral blood neutrophils (>95% pure, normal donors)
Protocol: Preparation of Human Neutrophils
Neutrophils were purified from venous blood of normal human donors using standard techniques of dextran sedimentation, centrifugation on Ficoll-paque® (Pharmacia) or Histopaque® sterile solution (Sigma) and hypotonic lysis of erythrocytes (Boyum, A., Isolation of Leukocytes From Human Blood: Further Observations. Scand. J. Lab. Clin. Invest., 21 (Suppl. 97): 31, 1968).
LTB4 Receptor Binding Assay
Neutrophils (4-6×10^6) in 1 ml Hanks' balanced salt solution (HBSS) containing 10 mM HEPES buffer , pH 7.4 and […] nordihydroguaiaretic acid were incubated with 0.6×10^-9 M (^3 H) LTB4 in the presence or absence of test compounds. The incubation was carried out at 0° C. for 45 minutes and terminated by adding 5 ml of ice-cold HBSS followed by rapid filtration of the incubation mixture under vacuum through GF/C glass fiber filters. The filters were further washed with 10 ml HBSS and radioactivity was determined. Specific binding was defined as the difference between total binding and nonspecific binding which was not displaced by 10^-7 M unlabeled LTB4. All data refer to specific binding.

T1 sequence (Q15722 whole entry): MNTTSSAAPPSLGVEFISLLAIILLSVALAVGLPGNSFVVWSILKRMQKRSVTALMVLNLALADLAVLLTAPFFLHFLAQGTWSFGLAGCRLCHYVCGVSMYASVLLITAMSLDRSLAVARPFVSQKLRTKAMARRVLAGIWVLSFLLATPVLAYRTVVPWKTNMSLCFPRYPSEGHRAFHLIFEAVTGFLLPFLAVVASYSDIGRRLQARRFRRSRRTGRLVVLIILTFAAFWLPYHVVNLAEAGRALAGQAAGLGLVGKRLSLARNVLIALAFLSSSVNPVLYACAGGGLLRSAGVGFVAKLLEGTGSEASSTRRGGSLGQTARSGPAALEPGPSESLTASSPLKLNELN

| IC50 [1] [nM] | IC50 [2] [nM] | SMILES |
| --- | --- | --- |
| 25 | 2.1 | CCCc1c(OCCCOc2ccc(C(=O)NC)c(OC)c2CC2CC2)ccc2c1OC(CCC(=O)NS(=O)(=O)c1ccccc1)CC2 (stereo not drawn) [Example 5] |
| 30 | 3.7 | CCCc1c(OCCCOc2ccc(C(=O)NC)c(OC)c2CC2CC2)ccc2c1OC(CCC(=O)NS(=O)(=O)c1ccc(C)cc1)CC2 (stereo not drawn) [Example 6] |
| 23 | 3 | CCCc1c(OCCCOc2ccc(C(=O)NC)c(OC)c2CC2CC2)ccc2c1OC(CCC(=O)NS(=O)(=O)c1ccccc1C)CC2 (stereo not drawn) [Example 7] |
